Measurements published in BindingDB's records for doi:10.1016/j.bmc.2012.03.044 (University of Mansoura, 2012).

Molecular target: T1, Prostaglandin G/H synthase 1 (Ovis aries, UniProt P05979)
T1 sequence (P05979 whole entry): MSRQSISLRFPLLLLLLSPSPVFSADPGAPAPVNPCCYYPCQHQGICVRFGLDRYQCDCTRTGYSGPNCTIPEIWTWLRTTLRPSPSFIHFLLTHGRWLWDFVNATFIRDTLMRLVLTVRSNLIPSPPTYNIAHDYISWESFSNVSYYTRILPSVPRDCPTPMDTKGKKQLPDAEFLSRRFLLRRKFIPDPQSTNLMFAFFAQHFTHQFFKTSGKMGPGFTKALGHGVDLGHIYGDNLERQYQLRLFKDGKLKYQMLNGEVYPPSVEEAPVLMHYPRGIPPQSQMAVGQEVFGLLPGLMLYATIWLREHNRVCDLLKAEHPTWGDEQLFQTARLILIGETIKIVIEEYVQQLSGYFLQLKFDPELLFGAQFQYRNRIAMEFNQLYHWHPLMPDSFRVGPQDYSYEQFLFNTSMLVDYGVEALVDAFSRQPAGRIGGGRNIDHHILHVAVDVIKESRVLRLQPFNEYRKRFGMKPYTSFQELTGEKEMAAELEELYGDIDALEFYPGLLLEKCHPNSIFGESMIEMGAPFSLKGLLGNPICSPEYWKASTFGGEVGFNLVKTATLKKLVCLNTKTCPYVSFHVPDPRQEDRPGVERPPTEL
Assay: Inhibition of ovine COX1 by enzyme immuno assay

IC50 | SMILES
> 50 µM | Cc1ccc(C2CC3(N=N2)C(=O)Nc2ccc(F)cc23)cc1 (configuration not stated)
> 50 µM | O=C1Nc2ccc(F)cc2C12CC(c1ccc(Br)cc1)N=N2 (configuration not stated)
